{"source": "patent US20030138476A1", "about": "“Use of glutamate and/or a glutamate precursor for the preparation of a nutritional or pharmaceutical preparation for the treatment or prevention of hyperpermeability or undesired permeability of the intestinal wall” (priority 2000, published 2003)", "key": {"HT-29CL.19A cells [1]": {"tested_on": "HT-29CL.19A cells", "assay": "Transepithelial (apical to basolateral) HRP permeability of HT-29CL.19A monolayers, hyperpermeability induced by PDB", "format": "cell-based, human", "conditions": "PDB 1 mmol/l", "text": "The macromolecular permeability of the intestinal epithelium is controlled by the passage through intercellular tight junctions in the paracellular channels. Opening of these tight junctions is controlled by the epithelial cells in response to various intercellular mediators, such as Ca, cyclic AMP, G proteins and protein kinase c. The human intestinal cell line HT-29CL.19A is becoming increasingly more important for studying this paracellular permeability in vitro. See also the abovementioned article in J. Parenteral Enteral Nutrition, that is incorporated herein by reference.\nFor the present examples, confluent monolayers of HT-29CL19A cells were cultured on permeability filters. […] The transepithelial permeability from apical to basolateral was determined for horseradish peroxidase (HRP) with the aid of an enzyme assay. Phorbol 12,13-dibutyrate (PDB, 1 mmol/l) was used to increase the permeability. […] All agents were added to the apical compartment."}, "HT-29CL.19A cells [2]": {"tested_on": "HT-29CL.19A cells", "conditions": "Kouznetsova et al. J. Parenteral Enteral Nutrition 23 (1999) 136-139; cited from earlier work"}, "[3]": {"conditions": "cited from earlier work"}}, "data": [{"molecule": "CCCC(=O)O[C@@H]1[C@@H](C)[C@@]2(O)[C@@H](C=C(CO)C[C@]3(O)C(=O)C(C)=C[C@@H]23)[C@@H]2C(C)(C)[C@]12OC(=O)CCC", "note": "[PDB, Phorbol 12,13-dibutyrate]", "values": [{"measurement": "increase of HRP flux compared with the control", "setting": "HT-29CL.19A cells [1]; apical, after 150-279 min stimulation, p<0.001", "result": 3, "unit": "fold"}]}, {"molecule": "N[C@@H](CCC(=O)O)C(=O)O", "note": "[Glutamate, glutamate]", "values": [{"measurement": "effect on PDB-induced hyperpermeability (HRP flux)", "setting": "HT-29CL.19A cells [1]; glutamate 0.6 mmol/l, apical, p<0.001", "result": "had the same effect"}, {"measurement": "effect on PDB-induced hyperpermeability (HRP flux)", "setting": "HT-29CL.19A cells [1]; glutamate 0.6 mmol/l, apical, p<0.001, listed as glutamate", "result": "reduces the macromolecular hyperpermeability"}]}, {"molecule": "N[C@H](C(=O)O)[C@@H]1CC(Cl)=NO1", "note": "[Acivicin, acivicin]", "values": [{"measurement": "effect of acivicin on the reduction in PDB-induced hyperpermeability in the presence of glutamate", "setting": "HT-29CL.19A cells [1]; in the presence of glutamate", "result": "This effect did not occur"}, {"measurement": "effect of acivicin on the glutamine-mediated reduction in PDB-induced hyperpermeability", "setting": "HT-29CL.19A cells [1]; in the presence of glutamine", "result": "prevented the glutamine-mediated reduction in the hyperpermeability"}]}, {"molecule": "NC(=O)CC[C@H](N)C(=O)O", "note": "[Glutamine, glutamine]", "values": [{"measurement": "effect on macromolecular hyperpermeability of intestinal cells induced by phorbol 12,13-dibutyrate", "setting": "HT-29CL.19A cells [2]", "result": "able to lower the macromolecular hyperpermeability"}, {"measurement": "effect on PDB-induced hyperpermeability (HRP flux)", "setting": "HT-29CL.19A cells [1]; glutamine added to apical compartment", "result": "reduces this hyperpermeability appreciably"}, {"measurement": "solubility", "setting": "[3]", "result": "poor solubility"}]}]}
